From patent US20220389061A1, “IMMUNOMODULATORS” (priority 2019, published 2022)
Starred links: 1 amine or outer side, 2 acyl side, 3 side chain; linkers in the order of their positions; H or OH if unused. Positions of bridges follow the written chain, without caps; N, C: chain ends. Non-standard residues stand in square brackets, D forms with d. Residues, ends and D or L forms follow the SMILES beside them. Groups on a side chain read outwards from the residue. *: point of attachment. Trp(1-CH2CO2Me) = COC(=O)Cn1cc(C[C@H](N)C(=O)O)c2ccccc21; Trp(1-CH2COOH) = N[C@@H](Cc1cn(CC(=O)O)c2ccccc12)C(=O)O; Benzoyl(2-(4-MeOPh)) = COc1ccc(-c2ccccc2C(=O)*)cc1; X1 = S=C(Nc1ccc2c(c1)Cc1ccccc1-2)*; X49 = N#Cc1ccccc1NC(=N)c1ccccc1N*; Hyp = O=C(O)[C@@H]1C[C@@H](O)CN1; X53 = Cc1nc(-c2cccnc2)sc1C(=O)*; pNA = O=[N+]([O-])c1ccc(N*)cc1; X55 = COc1cc(NC(=S)*)cc(OC)c1; X87 = FC(F)(F)c1ccccc1NC(=S)*; NMeNle = CCCC[C@H](NC)C(=O)O; X48 = O=C(c1ccc2ccoc2c1)*; X90 = Fc1cc(F)c(N*)c(F)c1; 3Abz = Nc1cccc(C(=O)O)c1; NMeA = CN[C@@H](C)C(=O)O; Dab = NCC[C@H](N)C(=O)O; Dap = NC[C@H](N)C(=O)O; X37 = Fc1cc(F)cc(N*)c1; X46 = COc1ccc(Cl)cc1N*; X51 = Cc1cccc(Cl)c1N*; CO = O=C([*:1])[*:2]; NHPh = c1ccc(N*)cc1

Target: T1, PD-1/PD-L1 (Homo sapiens, UniProt Q9NZQ7)
T1 construct: TVMV protease site linker (C); made in house; host or cells: HEK293T cells
Test: PD-1/PD-L1 Homogenous Time-Resolved Fluorescence (HTRF) binding assay
Settings: not given
In short: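 HTRF read-out using europium cryptate anti-Ig (1 nM) and APC anti-His (20 nM) on extracellular-domain fusion proteins in dPBS/0.1% BSA/0.05% Tween-20. Inhibitor first incubated 15 min with 10 nM PD-L1-His, followed by 20 nM PD-1-Ig for another 15 min.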

T1 sequence (Q9NZQ7 18-239): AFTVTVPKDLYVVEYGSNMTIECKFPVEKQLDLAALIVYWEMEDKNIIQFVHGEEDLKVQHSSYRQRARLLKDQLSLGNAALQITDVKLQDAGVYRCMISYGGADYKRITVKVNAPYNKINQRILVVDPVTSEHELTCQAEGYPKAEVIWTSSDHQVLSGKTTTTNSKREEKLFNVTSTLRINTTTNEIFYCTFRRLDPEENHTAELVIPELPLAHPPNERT

Compound | IC50 [nM]
CCCC[C@H]1C(=O)N(C)[C@@H](CCCC)C(=O)N[C@@H](CC(C)C)C(=O)N[C@H](C(=O)NCC(N)=O)CSCC(=O)N[C@@H](Cc2ccc(O)cc2)C(=O)N(C)[C@@H](C)C(=O)N[C@@H](CC(N)=O)C(=O)N2CCC[C@H]2C(=O)N[C@@H](CN)C(=O)N[C@@H](CC(C)C)C(=O)N2C[C@H](O)C[C@H]2C(=O)N[C@@H](Cc2c[nH]c3ccccc23)C(=O)N[C@@H](CCNC(=O)Nc2ccc([N+](=O)[O-])cc2)C(=O)N[C@@H](Cc2cn(CC(=O)O)c3ccccc23)C(=O)N1C [Example 1131] ({CH2CO}-Y[NMeA]NP[Dap]L[Hyp]W[Dab]([CO-pNA])[Trp(1-CH2COOH)][NMeNle][NMeNle]LCG-NH2; thioether N-14) | 7.3

Same assay, conditions: PD-L1-His 10 nM pre-incubated with inhibitor, PD-1-Ig 20 nM; read-out: HTRF IC50

IC50 [nM] | Compound
2.6 | CCCC[C@H]1C(=O)N(C)[C@@H](CCCC)C(=O)N[C@@H](CC(C)C)C(=O)N[C@H](C(=O)NCC(N)=O)CSCC(=O)N[C@@H](Cc2ccc(O)cc2)C(=O)N(C)[C@@H](C)C(=O)N[C@@H](CC(N)=O)C(=O)N2CCC[C@H]2C(=O)N[C@@H](CNC(=O)Nc2ccccc2C(=N)Nc2ccccc2C#N)C(=O)N[C@@H](CC(C)C)C(=O)N2C[C@H](O)C[C@H]2C(=O)N[C@@H](Cc2c[nH]c3ccccc23)C(=O)N[C@@H](CCNC(=O)Nc2ccccc2C(=N)Nc2ccccc2C#N)C(=O)N[C@@H](Cc2cn(CC(=O)O)c3ccccc23)C(=O)N1C [Example 1087] ({CH2CO}-Y[NMeA]NP[Dap]([CO-X49])L[Hyp]W[Dab]([CO-X49])[Trp(1-CH2COOH)][NMeNle][NMeNle]LCG-NH2; thioether N-14)
8.2 | CCCC[C@H]1C(=O)N(C)[C@@H](CCCC)C(=O)N[C@@H](CC(C)C)C(=O)N[C@H](C(=O)NCC(N)=O)CSCC(=O)N[C@@H](Cc2ccc(O)cc2)C(=O)N(C)[C@@H](C)C(=O)N[C@@H](CC(N)=O)C(=O)N2CCC[C@H]2C(=O)N[C@@H](CNC(=O)c2ccc3ccoc3c2)C(=O)N[C@@H](CC(C)C)C(=O)N2C[C@H](O)C[C@H]2C(=O)N[C@@H](Cc2c[nH]c3ccccc23)C(=O)N[C@@H](CCNC(=O)c2ccc3ccoc3c2)C(=O)N[C@@H](Cc2cn(CC(=O)OC)c3ccccc23)C(=O)N1C [Example 3011] ({CH2CO}-Y[NMeA]NP[Dap](X48)L[Hyp]W[Dab](X48)[Trp(1-CH2CO2Me)][NMeNle][NMeNle]LCG-NH2; thioether N-14)
2.5 | CCCC[C@H]1C(=O)N(C)[C@@H](CCCC)C(=O)N[C@@H](CC(C)C)C(=O)N[C@H](C(=O)NCC(N)=O)CSCC(=O)N[C@@H](Cc2ccc(O)cc2)C(=O)N(C)[C@@H](C)C(=O)N[C@@H](CC(N)=O)C(=O)N2CCC[C@H]2C(=O)N[C@@H](CNC(=O)Nc2cc(F)cc(F)c2)C(=O)N[C@@H](CC(C)C)C(=O)N2C[C@H](O)C[C@H]2C(=O)N[C@@H](Cc2c[nH]c3ccccc23)C(=O)N[C@@H](CCN)C(=O)N[C@@H](Cc2cn(CC(=O)O)c3ccccc23)C(=O)N1C [Example 1079] ({CH2CO}-Y[NMeA]NP[Dap]([CO-X37])L[Hyp]W[Dab][Trp(1-CH2COOH)][NMeNle][NMeNle]LCG-NH2; thioether N-14)
3 | CCCC[C@H]1C(=O)N(C)[C@@H](CCCC)C(=O)N[C@@H](CC(C)C)C(=O)N[C@H](C(=O)NCC(N)=O)CSCC(=O)N[C@@H](Cc2ccc(O)cc2)C(=O)N(C)[C@@H](C)C(=O)N[C@@H](CC(N)=O)C(=O)N2CCC[C@H]2C(=O)N[C@@H](CNC(=S)Nc2ccccc2C(F)(F)F)C(=O)N[C@@H](CC(C)C)C(=O)N2C[C@H](O)C[C@H]2C(=O)N[C@@H](Cc2c[nH]c3ccccc23)C(=O)N[C@@H](CCNC(=S)Nc2ccccc2C(F)(F)F)C(=O)N[C@@H](Cc2cn(CC(=O)O)c3ccccc23)C(=O)N1C [Example 1016] ({CH2CO}-Y[NMeA]NP[Dap](X87)L[Hyp]W[Dab](X87)[Trp(1-CH2COOH)][NMeNle][NMeNle]LCG-NH2; thioether N-14)
4.4 | CCCC[C@H]1C(=O)N(C)[C@@H](CCCC)C(=O)N[C@@H](CC(C)C)C(=O)N[C@H](C(=O)NCC(N)=O)CSCC(=O)N[C@@H](Cc2ccc(O)cc2)C(=O)N(C)[C@@H](C)C(=O)N[C@@H](CC(N)=O)C(=O)N2CCC[C@H]2C(=O)N[C@@H](CNC(=O)Nc2cc(Cl)ccc2OC)C(=O)N[C@@H](CC(C)C)C(=O)N2C[C@H](O)C[C@H]2C(=O)N[C@@H](Cc2c[nH]c3ccccc23)C(=O)N[C@@H](CCNC(=O)Nc2cc(Cl)ccc2OC)C(=O)N[C@@H](Cc2cn(CC(=O)O)c3ccccc23)C(=O)N1C [Example 1123] ({CH2CO}-Y[NMeA]NP[Dap]([CO-X46])L[Hyp]W[Dab]([CO-X46])[Trp(1-CH2COOH)][NMeNle][NMeNle]LCG-NH2; thioether N-14)
4.2 | CCCC[C@H]1C(=O)N(C)[C@@H](CCCC)C(=O)N[C@@H](CC(C)C)C(=O)N[C@H](C(=O)NCC(N)=O)CSCC(=O)N[C@@H](Cc2ccc(O)cc2)C(=O)N(C)[C@@H](C)C(=O)N[C@@H](CC(N)=O)C(=O)N2CCC[C@H]2C(=O)N[C@@H](CNC(=S)Nc2cc(OC)cc(OC)c2)C(=O)N[C@@H](CC(C)C)C(=O)N2C[C@H](O)C[C@H]2C(=O)N[C@@H](Cc2c[nH]c3ccccc23)C(=O)N[C@@H](CCNC(=S)Nc2cc(OC)cc(OC)c2)C(=O)N[C@@H](Cc2cn(CC(=O)O)c3ccccc23)C(=O)N1C [Example 1086] ({CH2CO}-Y[NMeA]NP[Dap](X55)L[Hyp]W[Dab](X55)[Trp(1-CH2COOH)][NMeNle][NMeNle]LCG-NH2; thioether N-14)
2.5 | CCCC[C@H]1C(=O)N(C)[C@@H](CCCC)C(=O)N[C@@H](CC(C)C)C(=O)N[C@H](C(=O)NCC(N)=O)CSCC(=O)N[C@@H](Cc2ccc(O)cc2)C(=O)N(C)[C@@H](C)C(=O)N[C@@H](CC(N)=O)C(=O)N2CCC[C@H]2C(=O)N[C@@H](CNC(=O)Nc2c(F)cc(F)cc2F)C(=O)N[C@@H](CC(C)C)C(=O)N2C[C@H](O)C[C@H]2C(=O)N[C@@H](Cc2c[nH]c3ccccc23)C(=O)N[C@@H](CCNC(=O)Nc2c(C)cccc2Cl)C(=O)N[C@@H](Cc2cn(CC(=O)O)c3ccccc23)C(=O)N1C [Example 1114] ({CH2CO}-Y[NMeA]NP[Dap]([CO-X90])L[Hyp]W[Dab]([CO-X51])[Trp(1-CH2COOH)][NMeNle][NMeNle]LCG-NH2; thioether N-14)
18 | CCCC[C@H]1C(=O)N(C)[C@@H](CCCC)C(=O)N[C@@H](CC(C)C)C(=O)N[C@H](C(=O)NCC(N)=O)CSCC(=O)N[C@@H](Cc2ccc(O)cc2)C(=O)N(C)[C@@H](C)C(=O)N[C@@H](CC(N)=O)C(=O)N2CCC[C@H]2C(=O)N[C@@H](CNC(=O)Nc2cccc(C(=O)OCC)c2)C(=O)N[C@@H](CC(C)C)C(=O)N2C[C@H](O)C[C@H]2C(=O)N[C@@H](Cc2c[nH]c3ccccc23)C(=O)N[C@@H](CCNC(=O)Nc2cccc(C(=O)OCC)c2)C(=O)N[C@@H](Cc2cn(CC(=O)O)c3ccccc23)C(=O)N1C [Example 1100] ({CH2CO}-Y[NMeA]NP[Dap]([CO-3Abz-OEt])L[Hyp]W[Dab]([CO-3Abz-OEt])[Trp(1-CH2COOH)][NMeNle][NMeNle]LCG-NH2; thioether N-14)

The remaining lines, values behind:

Compound | IC50 [nM]
CCCC[C@H]1C(=O)N(C)[C@@H](CCCC)C(=O)N[C@@H](CC(C)C)C(=O)N[C@H](C(=O)NCC(N)=O)CSCC(=O)N[C@@H](Cc2ccc(O)cc2)C(=O)N(C)[C@@H](C)C(=O)N[C@@H](CC(N)=O)C(=O)N2CCC[C@H]2C(=O)N[C@@H](CNC(=O)Nc2ccccc2)C(=O)N[C@@H](CC(C)C)C(=O)N2C[C@H](O)C[C@H]2C(=O)N[C@@H](Cc2c[nH]c3ccccc23)C(=O)N[C@@H](CCNC(=O)Nc2ccccc2)C(=O)N[C@@H](Cc2cn(CC(=O)O)c3ccccc23)C(=O)N1C [Example 1009] ({CH2CO}-Y[NMeA]NP[Dap]([CO-NHPh])L[Hyp]W[Dab]([CO-NHPh])[Trp(1-CH2COOH)][NMeNle][NMeNle]LCG-NH2; thioether N-14) | 6.5
CCCC[C@H]1C(=O)N(C)[C@@H](CCCC)C(=O)N[C@@H](CC(C)C)C(=O)N[C@H](C(=O)NCC(N)=O)CSCC(=O)N[C@@H](Cc2ccc(O)cc2)C(=O)N(C)[C@@H](C)C(=O)N[C@@H](CC(N)=O)C(=O)N2CCC[C@H]2C(=O)N[C@@H](CNC(=O)c2sc(-c3cccnc3)nc2C)C(=O)N[C@@H](CC(C)C)C(=O)N2C[C@H](O)C[C@H]2C(=O)N[C@@H](Cc2c[nH]c3ccccc23)C(=O)N[C@@H](CCNC(=O)c2sc(-c3cccnc3)nc2C)C(=O)N[C@@H](Cc2cn(CC(=O)OC)c3ccccc23)C(=O)N1C [Example 1008] ({CH2CO}-Y[NMeA]NP[Dap](X53)L[Hyp]W[Dab](X53)[Trp(1-CH2CO2Me)][NMeNle][NMeNle]LCG-NH2; thioether N-14) | 7.6
CCCC[C@H]1C(=O)N(C)[C@@H](CCCC)C(=O)N[C@@H](CC(C)C)C(=O)N[C@H](C(=O)NCC(N)=O)CSCC(=O)N[C@@H](Cc2ccc(O)cc2)C(=O)N(C)[C@@H](C)C(=O)N[C@@H](CC(N)=O)C(=O)N2CCC[C@H]2C(=O)N[C@@H](CNC(=S)Nc2ccc3c(c2)Cc2ccccc2-3)C(=O)N[C@@H](CC(C)C)C(=O)N2C[C@H](O)C[C@H]2C(=O)N[C@@H](Cc2c[nH]c3ccccc23)C(=O)N[C@@H](CCNC(=S)Nc2ccc3c(c2)Cc2ccccc2-3)C(=O)N[C@@H](Cc2cn(CC(=O)O)c3ccccc23)C(=O)N1C [Example 2007] ({CH2CO}-Y[NMeA]NP[Dap](X1)L[Hyp]W[Dab](X1)[Trp(1-CH2COOH)][NMeNle][NMeNle]LCG-NH2; thioether N-14) | 13.3
CCCC[C@H]1C(=O)N(C)[C@@H](CCCC)C(=O)N[C@@H](CC(C)C)C(=O)N[C@H](C(=O)NCC(N)=O)CSCC(=O)N[C@@H](Cc2ccc(O)cc2)C(=O)N(C)[C@@H](C)C(=O)N[C@@H](CC(N)=O)C(=O)N2CCC[C@H]2C(=O)N[C@@H](CNC(=O)c2ccccc2-c2ccc(OC)cc2)C(=O)N[C@@H](CC(C)C)C(=O)N2C[C@H](O)C[C@H]2C(=O)N[C@@H](Cc2c[nH]c3ccccc23)C(=O)N[C@@H](CCNC(=O)c2ccccc2-c2ccc(OC)cc2)C(=O)N[C@@H](Cc2cn(CC(=O)O)c3ccccc23)C(=O)N1C [Example 1095] ({CH2CO}-Y[NMeA]NP[Dap](Benzoyl(2-(4-MeOPh)))L[Hyp]W[Dab](Benzoyl(2-(4-MeOPh)))[Trp(1-CH2COOH)][NMeNle][NMeNle]LCG-NH2; thioether N-14) | 5.7
